Results on 28 molecules are retold here after US9212182B2, “Bicyclic sulfonamide compounds as sodium channel inhibitors” (AMGEN INC., priority 2013, dated 2015).

This experiment deals with Nav 1.7 (Homo sapiens (Human), UniProt Q15858). Description: in-vitro Nav 1.7 PX (IC50). Type of experiment: cell-based.

Read-outs that look alike come from different tables or passages of the source.

Nav 1.7, sequence (Q15858 whole entry): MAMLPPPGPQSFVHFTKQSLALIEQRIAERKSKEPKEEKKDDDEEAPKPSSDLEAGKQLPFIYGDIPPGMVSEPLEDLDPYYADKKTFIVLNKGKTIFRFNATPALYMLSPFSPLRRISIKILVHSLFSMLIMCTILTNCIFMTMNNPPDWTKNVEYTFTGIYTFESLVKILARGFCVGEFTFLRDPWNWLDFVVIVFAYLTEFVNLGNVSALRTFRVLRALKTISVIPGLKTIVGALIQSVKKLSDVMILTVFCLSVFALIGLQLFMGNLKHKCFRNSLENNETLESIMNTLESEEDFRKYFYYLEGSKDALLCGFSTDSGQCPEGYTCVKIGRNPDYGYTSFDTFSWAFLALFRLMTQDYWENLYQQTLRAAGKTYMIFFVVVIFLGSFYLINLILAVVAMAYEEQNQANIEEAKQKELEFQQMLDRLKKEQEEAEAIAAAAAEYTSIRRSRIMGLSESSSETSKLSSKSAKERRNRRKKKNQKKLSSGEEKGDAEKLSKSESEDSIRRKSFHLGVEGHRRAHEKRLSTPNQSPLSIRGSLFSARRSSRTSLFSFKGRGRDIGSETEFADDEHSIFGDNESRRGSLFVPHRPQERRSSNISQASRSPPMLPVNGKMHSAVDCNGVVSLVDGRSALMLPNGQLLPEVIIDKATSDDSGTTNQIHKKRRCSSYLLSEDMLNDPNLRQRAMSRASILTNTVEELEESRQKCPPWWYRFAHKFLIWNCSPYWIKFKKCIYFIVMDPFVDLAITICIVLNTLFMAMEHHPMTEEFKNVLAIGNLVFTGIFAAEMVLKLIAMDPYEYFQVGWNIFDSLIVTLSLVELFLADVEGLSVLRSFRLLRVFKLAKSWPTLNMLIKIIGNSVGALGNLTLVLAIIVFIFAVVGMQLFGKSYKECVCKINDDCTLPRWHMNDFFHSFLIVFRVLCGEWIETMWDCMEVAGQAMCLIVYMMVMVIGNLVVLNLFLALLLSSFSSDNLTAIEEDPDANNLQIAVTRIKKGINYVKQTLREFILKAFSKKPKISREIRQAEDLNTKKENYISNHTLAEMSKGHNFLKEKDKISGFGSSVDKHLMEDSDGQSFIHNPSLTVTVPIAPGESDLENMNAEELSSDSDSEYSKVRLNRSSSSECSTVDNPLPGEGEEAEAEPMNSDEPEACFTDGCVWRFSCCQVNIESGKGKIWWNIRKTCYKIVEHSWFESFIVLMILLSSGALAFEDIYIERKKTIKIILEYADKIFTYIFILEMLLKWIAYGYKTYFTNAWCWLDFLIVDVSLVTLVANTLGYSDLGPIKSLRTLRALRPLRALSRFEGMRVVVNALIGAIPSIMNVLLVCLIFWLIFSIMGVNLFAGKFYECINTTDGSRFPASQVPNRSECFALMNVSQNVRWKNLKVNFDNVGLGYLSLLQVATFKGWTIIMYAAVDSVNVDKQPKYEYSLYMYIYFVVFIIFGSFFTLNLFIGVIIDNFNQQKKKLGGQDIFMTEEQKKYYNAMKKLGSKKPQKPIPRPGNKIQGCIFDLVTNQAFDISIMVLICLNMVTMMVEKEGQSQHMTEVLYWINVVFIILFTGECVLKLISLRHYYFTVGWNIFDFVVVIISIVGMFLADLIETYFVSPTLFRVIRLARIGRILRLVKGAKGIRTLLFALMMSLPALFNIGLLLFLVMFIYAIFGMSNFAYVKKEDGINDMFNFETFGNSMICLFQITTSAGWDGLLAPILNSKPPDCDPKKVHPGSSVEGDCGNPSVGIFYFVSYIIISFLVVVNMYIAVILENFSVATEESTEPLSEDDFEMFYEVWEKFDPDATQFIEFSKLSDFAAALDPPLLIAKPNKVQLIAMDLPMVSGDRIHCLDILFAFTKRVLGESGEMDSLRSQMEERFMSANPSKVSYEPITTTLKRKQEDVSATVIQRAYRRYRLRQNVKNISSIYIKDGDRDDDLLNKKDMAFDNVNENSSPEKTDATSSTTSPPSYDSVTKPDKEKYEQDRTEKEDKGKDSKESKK

In turn, `COc1cc(-c2cccc(C(F)(F)F)c2)ccc1-n1c(=O)ccc2cc(S(=O)(=O)Nc3cccc(F)n3)ccc21` (atropisomer, axis not shown; (P)) [Example 1242, (P)—N-(6-fluoro-2-pyridinyl)-1-(3-methoxy-3′-(trifluoromethyl)-4-biphenylyl)-2-oxo-1,2-dihydro-6-quinolinesulfonamide] came in with an IC50 of 79 nM.

In the case of `COc1cc(-c2cc(F)cnc2OC)c(F)cc1-n1c(=O)ccc2cc(S(=O)(=O)Nc3ccon3)ccc21` [Example 531, 1-(5-fluoro-4-(5-fluoro-2-methoxy-3-pyridinyl)-2-methoxyphenyl)-N-3-isoxazolyl-2-oxo-1,2-dihydro-6-quinolinesulfonamide], the IC50 (in-vitro PatchXpress (PX)) is 342 nM.

Molecule `COc1cc(-c2ccc(F)cc2)ccc1-n1c(=O)ccc2cc(S(=O)(=O)Nc3ccon3)ccc21` [Example 1069, 1-(4′-fluoro-3-methoxy-4-biphenylyl)-N-3-isoxazolyl-2-oxo-1,2-dihydro-6-quinolinesulfonamide] yielded an IC50 (in-vitro Nav 1.7 PX data (PatchXpress)) of 71 nM.

In turn, `COc1cc(-c2cccc(C(C)C)c2)ccc1-n1c(=O)ccc2cc(S(=O)(=O)Nc3ccon3)ccc21` [Example 783, N-3-isoxazolyl-1-(3-methoxy-3′-(1-methylethyl)-4-biphenylyl)-2-oxo-1,2-dihydro-6-quinolinesulfonamide] displayed an IC50 (in-vitro Nav 1.7 PX data) of 9 nM.

The molecule `COc1ccc(-c2cc(F)cc(Cl)c2)cc1-n1c(=O)ccc2cc(S(=O)(=O)Nc3cccnn3)ccc21` [Example 861, 1-(3′-chloro-5′-fluoro-4-methoxy-3-biphenylyl)-2-oxo-N-3-pyridazinyl-1,2-dihydro-6-quinolinesulfonamide] yielded an IC50 (in-vitro Nav 1.7 PX data) of 38 nM.

In turn, `COc1cc(OC)cc(-c2ccc(-n3c(=O)ccc4cc(S(=O)(=O)Nc5ccon5)ccc43)c(OC)c2)c1` [Example 811, N-3-isoxazolyl-2-oxo-1-(3,3′,5′-trimethoxy-4-biphenylyl)-1,2-dihydro-6-quinolinesulfonamide] had an IC50 (in-vitro Nav 1.7 PX data) of 66 nM.

For the setting “in-vitro Nav 1.7 PX data”, `COc1cc(-c2ccc3c(c2)OCC3)ccc1-n1c(=O)ccc2cc(S(=O)(=O)Nc3ccon3)ccc21` [Example 809, 1-(4-(2,3-dihydro-1-benzofuran-6-yl)-2-methoxyphenyl)-N-3-isoxazolyl-2-oxo-1,2-dihydro-6-quinolinesulfonamide] had an IC50 of 122 nM.

Turning to `COc1cc(-c2cccc(OC(F)(F)F)c2)ccc1-n1c(=O)ccc2cc(S(=O)(=O)Nc3ccon3)ccc21` [Example 781, N-3-isoxazolyl-1-(3-methoxy-3′-(trifluoromethoxy)-4-biphenylyl)-2-oxo-1,2-dihydro-6-quinolinesulfonamide], the IC50 (in-vitro Nav 1.7 PX data) was 10 nM.

`COc1cc(-c2cc(C)cnc2OC)ccc1-n1c(=O)ccc2cc(S(=O)(=O)Nc3ccon3)ccc21` [Example 1022, N-3-isoxazolyl-1-(2-methoxy-4-(2-methoxy-5-methyl-3-pyridinyl)phenyl)-2-oxo-1,2-dihydro-6-quinolinesulfonamide]: the IC50 (in-vitro Nav 1.7 PX data) came to 139 nM.

For the molecule `COc1cc(-c2cncc(C(F)(F)F)c2)c(F)cc1-n1c(=O)ccc2cc(S(=O)(=O)Nc3ccon3)ccc21` [Example 721, 1-(5-fluoro-2-methoxy-4-(5-(trifluoromethyl)-3-pyridinyl)phenyl)-N-3-isoxazolyl-2-oxo-1,2-dihydro-6-quinolinesulfonamide], 32 nM corresponded to half-maximal inhibition (in-vitro Nav 1.7 PX data) (IC50).

On to `COc1cc(-c2ccc(C(F)(F)F)cc2)c(F)cc1-n1c(=O)ccc2cc(S(=O)(=O)Nc3ncco3)ccc21` (atropisomer, axis not shown; (P)) [Example 636, (P)-1-(2-fluoro-5-methoxy-4′-(trifluoromethyl)-4-biphenylyl)-N-1,3-oxazol-2-yl-2-oxo-1,2-dihydro-6-quinolinesulfonamide], for which the IC50 was 31 nM.

On to `COc1nc(OC2CCC2)c(Cl)cc1-n1c(=O)ccc2cc(S(=O)(=O)Nc3ccon3)ccc21` [Example 821, 1-(5-chloro-6-(cyclobutyloxy)-2-methoxy-3-pyridinyl)-N-3-isoxazolyl-2-oxo-1,2-dihydro-6-quinolinesulfonamide], for which the IC50 (in-vitro Nav 1.7 PX data) was determined as 4660 nM. In other words, the single-digit micromolar range.

Turning to `COc1cc(-c2ccc(F)c(F)c2)c(C)cc1-n1c(=O)ccc2cc(S(=O)(=O)Nc3ncccn3)ccc21` [Example 958, 1-(3′,4′-difluoro-5-methoxy-2-methyl-4-biphenylyl)-2-oxo-N-2-pyrimidinyl-1,2-dihydro-6-quinolinesulfonamide], where the note is “in-vitro Nav 1.7 PX data”, inhibition was half-maximal at 28 nM (IC50). This IC50 lies about 170-fold lower than the previous one.

Molecule `COc1nc(N(C)C2CCCC2)c(Cl)cc1-n1c(=O)ccc2cc(S(=O)(=O)Nc3ccon3)ccc21` [Example 1231, 1-(5-chloro-6-(cyclopentyl(methyl)amino)-2-methoxy-3-pyridinyl)-N-3-isoxazolyl-2-oxo-1,2-dihydro-6-quinolinesulfonamide] displayed a half-maximal inhibitory concentration (IC50) of 115 nM.

Take `COc1nc(-c2cc(F)cc(Cl)c2)c(Cl)cc1-n1c(=O)ccc2cc(S(=O)(=O)Nc3ccon3)ccc21` [Example 1070, 1-(5-chloro-6-(3-chloro-5-fluorophenyl)-2-methoxy-3-pyridinyl)-N-3-isoxazolyl-2-oxo-1,2-dihydro-6-quinolinesulfonamide]: the IC50 (in-vitro Nav 1.7 PX data) amounted to 12 nM.

`COc1cc(C#CC(C)(C)C)c(F)cc1-n1c(=O)ccc2cc(S(=O)(=O)Nc3ccon3)ccc21` [Example 1122, 1-(4-(3,3-dimethyl-1-butyn-1-yl)-5-fluoro-2-methoxyphenyl)-N-3-isoxazolyl-2-oxo-1,2-dihydro-6-quinolinesulfonamide] came in with an IC50 (in-vitro Nav 1.7 PX data) of 80 nM.

Molecule `COc1cc(-c2cc(F)cc(Cl)c2)c(C)cc1-n1c(=O)ccc2cc(S(=O)(=O)Nc3ccon3)ccc21` (atropisomer, axis not shown; (M)) [Example 418, (M)-1-(3′-chloro-5′-fluoro-5-methoxy-2-methyl-4-biphenylyl)-N-3-isoxazolyl-2-oxo-1,2-dihydro-6-quinolinesulfonamide] registered an IC50 of 309 nM. This lies in the sub-micromolar range.

`COc1cc(-c2cnc(OC)c(Cl)c2)c(F)cc1-n1c(=O)ccc2cc(S(=O)(=O)Nc3cc(C)ncn3)ccc21` (atropisomer, axis not shown; (P)) [Example 1159, (P)-1-(4-(5-chloro-6-methoxy-3-pyridinyl)-5-fluoro-2-methoxyphenyl)-N-(6-methyl-4-pyrimidinyl)-2-oxo-1,2-dihydro-6-quinolinesulfonamide]: where the note is “in-vitro Nav 1.7 PX data, Table 4”, the IC50 was 51 nM.

The molecule `COc1cc(-c2ccccc2C)c(F)cc1-n1c(=O)ccc2cc(S(=O)(=O)Nc3ccon3)ccc21` [Example 953, 1-(2-fluoro-5-methoxy-2′-methyl-4-biphenylyl)-N-3-isoxazolyl-2-oxo-1,2-dihydro-6-quinolinesulfonamide] returned an IC50 (in-vitro Nav 1.7 PX data) of 26 nM.

In the case of `COc1cc(-c2cccc(C(F)(F)F)c2)c(F)cc1-n1c(=O)ccc2cc(S(=O)(=O)Nc3ncc(F)cn3)ccc21` [Example 802, 1-(2-fluoro-5-methoxy-3′-(trifluoromethyl)-4-biphenylyl)-N-(5-fluoro-2-pyrimidinyl)-2-oxo-1,2-dihydro-6-quinolinesulfonamide], half-maximal inhibition (in-vitro Nav 1.7 PX data) (IC50) required 21 nM.

Regarding `COc1cc(-c2cc(F)cc(F)c2)c(C)cc1-n1c(=O)cc(C)c2cc(S(=O)(=O)Nc3ccon3)ccc21` (atropisomer, axis not shown; (P)) [Example 570, (P)-1-(3′,5′-difluoro-5-methoxy-2-methyl-4-biphenylyl)-N-3-isoxazolyl-4-methyl-2-oxo-1,2-dihydro-6-quinolinesulfonamide], 67 nM corresponded to half-maximal inhibition (IC50).

For the setting “in-vitro Nav 1.7 PX data”, `COc1cc(-c2cccc(C)c2)ccc1-n1c(=O)ccc2cc(S(=O)(=O)Nc3cc(C)ncn3)ccc21` [Example 1131, 1-(3-methoxy-3′-methyl-4-biphenylyl)-N-(6-methyl-4-pyrimidinyl)-2-oxo-1,2-dihydro-6-quinolinesulfonamide] gave an IC50 of 155 nM.

Regarding `COc1ccc(-c2ccnn2C)cc1-n1c(=O)ccc2cc(S(=O)(=O)Nc3ccon3)ccc21` [Example 385, N-3-isoxazolyl-1-(2-methoxy-5-(1-methyl-1H-pyrazol-5-yl)phenyl)-2-oxo-1,2-dihydro-6-quinolinesulfonamide], the IC50 amounted to 6230 nM.

With `COc1cc(F)cc(-c2ccc(-n3c(=O)ccc4cc(S(=O)(=O)Nc5cccnn5)ccc43)c(OC)c2)c1` [Example 997, 1-(3′-fluoro-3,5′-dimethoxy-4-biphenylyl)-2-oxo-N-3-pyridazinyl-1,2-dihydro-6-quinolinesulfonamide], the half-maximal inhibitory concentration (IC50) (in-vitro Nav 1.7 PX data) stood at 66 nM. This lies in the double-digit nanomolar range.

On to `COc1cc(-c2cccc(Cl)c2)ccc1-n1c(=O)ccc2cc(S(=O)(=O)Nc3ccon3)ccc21` [Example 351, M-1-(3′-chloro-3-methoxy-[1,1′-biphenyl]-4-yl)-N-(isoxazol-3-yl)-2-oxo-1,2-dihydroquinoline-6-sulfonamide], for which the IC50 was found to be 5520 nM.

For the molecule `COc1cc(-c2cc(F)cc(Cl)c2)c(F)cc1-n1c(=O)ccc2cc(S(=O)(=O)Nc3cc(C)ncn3)ccc21` [Example 933, 1-(3′-chloro-2,5′-difluoro-5-methoxy-4-biphenylyl)-N-(6-methyl-4-pyrimidinyl)-2-oxo-1,2-dihydro-6-quinolinesulfonamide], the IC50 (in-vitro Nav 1.7 PX data) turned out to be 8 nM.

`COc1cc(-c2cccc(F)c2)c(C)cc1-n1c(=O)cc(C)c2cc(S(=O)(=O)Nc3ccon3)ccc21` (atropisomer, axis not shown; (P)) [Example 568, (P)-1-(3′-fluoro-5-methoxy-2-methyl-4-biphenylyl)-N-3-isoxazolyl-4-methyl-2-oxo-1,2-dihydro-6-quinolinesulfonamide] had an IC50 of 92 nM.

On to `COc1cc(-c2ccc(C)nc2)c(F)cc1-n1c(=O)ccc2cc(S(=O)(=O)Nc3ccon3)ccc21` [Example 500, 1-(5-fluoro-2-methoxy-4-(6-methyl-3-pyridinyl)phenyl)-N-3-isoxazolyl-2-oxo-1,2-dihydro-6-quinolinesulfonamide], for which, for the setting “in-vitro PatchXpress (PX)”, the IC50 worked out at 2840 nM.

The term IC50 denotes the concentration needed to halve the response being measured. Higher therefore signals lower potency.
